Experimental data taken from ChEMBL document CHEMBL1833969, “Synthesis and antigastric ulcer activity of novel 5-isoproyl-3,8-dimethylazulene derivatives” (2011).

Key:
Assay type in all cases: functional
Conditions in all cases: Stomach
Mus musculus [1] = assay: Antiulcerogenic activity in Kunming mouse assessed as inhibition of ethanol-induced gastric ulcer at 3.6 mg/kg, po qd for 5 days measured 1 hr post last dose relative to control
Mus musculus [2] = assay: Antiulcerogenic activity in Kunming mouse assessed as inhibition of ethanol-induced gastric ulcer at 4.1 mg/kg, po qd for 5 days measured 1 hr post last dose relative to control
Mus musculus [3] = assay: Antiulcerogenic activity in Kunming mouse assessed as inhibition of ethanol-induced gastric ulcer at 3 mg/kg, po qd for 5 days measured 1 hr post last dose relative to control
Mus musculus [4] = assay: Antiulcerogenic activity in Kunming mouse assessed as inhibition of ethanol-induced gastric ulcer at 3.9 mg/kg, po qd for 5 days measured 1 hr post last dose relative to control
Mus musculus [5] = assay: Antiulcerogenic activity in Kunming mouse assessed as inhibition of ethanol-induced gastric ulcer at 3.7 mg/kg, po qd for 5 days measured 1 hr post last dose relative to control
Mus musculus [6] = assay: Antiulcerogenic activity in Kunming mouse assessed as inhibition of ethanol-induced gastric ulcer at 4.5 mg/kg, po qd for 5 days measured 1 hr post last dose relative to control
Mus musculus [7] = assay: Antiulcerogenic activity in Kunming mouse assessed as inhibition of ethanol-induced gastric ulcer at 4 mg/kg, po qd for 5 days measured 1 hr post last dose relative to control
Mus musculus [8] = assay: Antiulcerogenic activity in Kunming mouse assessed as inhibition of ethanol-induced gastric ulcer at 3.2 mg/kg, po qd for 5 days measured 1 hr post last dose relative to control
Mus musculus [9] = assay: Antiulcerogenic activity in Kunming mouse assessed as inhibition of ethanol-induced gastric ulcer at 3.1 mg/kg, po qd for 5 days measured 1 hr post last dose relative to control
Mus musculus [10] = assay: Antiulcerogenic activity in Kunming mouse assessed as inhibition of ethanol-induced gastric ulcer at 4.6 mg/kg, po qd for 5 days measured 1 hr post last dose relative to control
Mus musculus [11] = assay: Antiulcerogenic activity in Kunming mouse assessed as inhibition of ethanol-induced gastric ulcer at 3.3 mg/kg, po qd for 5 days measured 1 hr post last dose relative to control
Mus musculus [12] = assay: Antiulcerogenic activity in Kunming mouse assessed as inhibition of ethanol-induced gastric ulcer at 13.4 mg/kg, po qd for 5 days measured 1 hr post last dose relative to control
Mus musculus [13] = assay: Antiulcerogenic activity in Kunming mouse assessed as inhibition of ethanol-induced gastric ulcer at 4.7 mg/kg, po qd for 5 days measured 1 hr post last dose relative to control
Mus musculus [14] = assay: Antiulcerogenic activity in Kunming mouse assessed as inhibition of ethanol-induced gastric ulcer at 4.3 mg/kg, po qd for 5 days measured 1 hr post last dose relative to control

Cc1cc(S(=O)(=O)NC2CCCCC2)c2c(C)ccc(C(C)C)cc1-2
inhibition in vivo at 3.6 mg/kg (Mus musculus [1]): 50.9%

COc1ccc(NS(=O)(=O)c2cc(C)c3cc(C(C)C)ccc(C)c2-3)c(OC)c1
inhibition in vivo at 4.1 mg/kg (Mus musculus [2]): 52.8%

Cc1cc(S(=O)(=O)O)c2c(C)ccc(C(C)C)cc1-2 [SODIUM GUALENATE]
inhibition in vivo at 3 mg/kg (Mus musculus [3]): 32.6%

COc1ccc(/C=N\NS(=O)(=O)c2cc(C)c3cc(C(C)C)ccc(C)c2-3)cc1
inhibition in vivo at 4.1 mg/kg (Mus musculus [2]): 4.08%

Cc1cc(S(=O)(=O)N/N=C\c2cccs2)c2c(C)ccc(C(C)C)cc1-2
inhibition in vivo at 3.9 mg/kg (Mus musculus [4]): 30.7%

Cc1ccc(NS(=O)(=O)c2cc(C)c3cc(C(C)C)ccc(C)c2-3)cc1
inhibition in vivo at 3.7 mg/kg (Mus musculus [5]): 23.1%

Cc1cc(S(=O)(=O)N/N=C\c2ccc(C(F)(F)F)cc2)c2c(C)ccc(C(C)C)cc1-2
inhibition in vivo at 4.5 mg/kg (Mus musculus [6]): 24.8%

Cc1cc(S(=O)(=O)Nc2cccc3ccccc23)c2c(C)ccc(C(C)C)cc1-2
inhibition in vivo at 4 mg/kg (Mus musculus [7]): 50.5%

CCCNS(=O)(=O)c1cc(C)c2cc(C(C)C)ccc(C)c1-2
inhibition in vivo at 3.2 mg/kg (Mus musculus [8]): 33%

Cc1cc(S(=O)(=O)N/N=C\c2ccccc2O)c2c(C)ccc(C(C)C)cc1-2
inhibition in vivo at 4 mg/kg (Mus musculus [7]): 12.2%

Cc1cc(S(=O)(=O)NC(C)C)c2c(C)ccc(C(C)C)cc1-2
inhibition in vivo at 3.2 mg/kg (Mus musculus [8]): 18.7%

Cc1cc(S(=O)(=O)Nc2ccc(N)cc2)c2c(C)ccc(C(C)C)cc1-2
inhibition in vivo at 3.1 mg/kg (Mus musculus [9]): 45.2%

Cc1cc(S(=O)(=O)Nc2ccc(/N=C/c3cccs3)cc2)c2c(C)ccc(C(C)C)cc1-2
inhibition in vivo at 4.6 mg/kg (Mus musculus [10]): 50.2%

Cc1cc(S(=O)(=O)NCc2ccccc2)c2c(C)ccc(C(C)C)cc1-2
inhibition in vivo at 3.7 mg/kg (Mus musculus [5]): 2.46%

Cc1cc(S(=O)(=O)NCC(C)C)c2c(C)ccc(C(C)C)cc1-2
inhibition in vivo at 3.3 mg/kg (Mus musculus [11]): 33.9%

CCNS(=O)(=O)c1cc(C)c2cc(C(C)C)ccc(C)c1-2
inhibition in vivo at 3.1 mg/kg (Mus musculus [9]): 24.1%

COc1ccc2[nH]c([S+]([O-])Cc3ncc(C)c(OC)c3C)nc2c1 (stereo unspecified) [OMEPRAZOLE]
inhibition in vivo at 13.4 mg/kg (Mus musculus [12]): 36.7%

Cc1cc(S(=O)(=O)Nc2ccc(Cl)cc2)c2c(C)ccc(C(C)C)cc1-2
inhibition in vivo at 3.9 mg/kg (Mus musculus [4]): 24.8%

Cc1cc(S(=O)(=O)Nc2ccc(/N=C/c3ccccc3)cc2)c2c(C)ccc(C(C)C)cc1-2
inhibition in vivo at 4.6 mg/kg (Mus musculus [10]): 17.1%

Cc1cc(S(=O)(=O)Nc2ccc(/N=C/c3ccccc3O)cc2)c2c(C)ccc(C(C)C)cc1-2
inhibition in vivo at 4.7 mg/kg (Mus musculus [13]): 28.7%

Cc1cc(S(=O)(=O)Nc2cccc(Br)c2)c2c(C)ccc(C(C)C)cc1-2
inhibition in vivo at 4.3 mg/kg (Mus musculus [14]): 51.3%
